Test system: fecundity of hamsters
Test: standardized test for capacity to inhibit the fecundity of hamsters (implantation rate)
Format: in vivo, Syrian golden hamsters
Description: The contraceptive utility of the instant compounds is evident from the results of a standardized test for their capacity to inhibit the fecundity of hamsters. In this test, sexually-mature female Syrian golden hamsters weighing at least 105 g are mated; and to each of a group of 5 is administered, daily for 5 days beginning on the first day sperm appears in the vagina between 8:15 and 10:00 a.m., test compound dissolved or suspended in an inert vehicle. The initial daily dose is ordinarily 50 mg/kg in 0.2 ml of corn oil, subcutaneously or intragastrically. A group of such animals to which is likewise administered vehicle alone serves as controls. Approximately 48 hr. after the 5th dose, the animals are sacrificed and their uteri and ovaries inspected for implantation sites and corpora lutea. If the total number of the former divided by the total number of the later (i.e., the implantation rate) affords a value amounting to 0.5 or less, the compound is considered to inhibit fecundity in the foregoing test. The ED50 of such a compound is determined by repeating the test at appropriate doosage(s). Potency is expressed as the ratio of the ED50 of estrone to that of compound.

[1] = mated female Syrian golden hamsters, 10 mg/kg subcutaneously in corn oil, daily for 5 days

CCCCC[C@H](O)/C=C/C1C(C/C=C\CCCC(=O)OC)C(=O)C2OC(=O)OC21 (stereo partly drawn) [Example 1, methyl 7-[tetrahydro-4-(3S-hydroxy-1E-octenyl)-2,6-dioxo-4H-cyclopenta-1,3-dioxol-5-yl]-5Z-heptenoate]
ED50 (Mesocricetus auratus, 120 h, mated female Syrian golden hamsters, daily for 5 days, read-out: ED50 (inhibition of fecundity)): 5.6 mg/kg | implantation rate (total implantation sites divided by total corpora lutea) [1]: 0.16 | inhibition of fecundity (implantation rate 0.5 or less) [1]: inhibited fecundity | potency (ratio of the ED50 of estrone to that of compound) (relative to estrone, hamster fecundity test): approximately 1%
